The values that follow come from publication PMC12951562, “SH2scan: Mapping SH2 Domain-Ligand Binding Selectivity for Inhibitors and Degraders” (Journal of Medicinal Chemistry, 2026).

Each structure is given as a SMILES string.

The term Kd denotes the concentration at which binding is half-saturated.

Test [1] has as its target T1, STAT3(S614R)-nonphosphorylated (Homo sapiens, UniProt P40763, S614R).
T1 construct: made in house; host or cells: HEK293 (transient transfection), unpurified extract, dephosphorylated by endogenous phosphatases
The test is described as follows: biochemical. Type of test: binding.

The target in the next test is T2, SYK(SH2dom1.dom2.) (Homo sapiens, UniProt P43405).
T2 construct: the SH2 domains for these targets are expressed in tandem constructs; made in house; host or cells: HEK293 (transient transfection), unpurified extract
Type of test: binding. The following applies: primary screen, 10 μM.

The target in test [2] is T3, STAT3(E616del)-nonphosphorylated (Homo sapiens, UniProt P40763, DEL616-616).
T3 construct: made in house; host or cells: HEK293 (transient transfection), unpurified extract, dephosphorylated by endogenous phosphatases
The test is described as follows: biochemical. In kind it is binding.

For the next test, the target named is T4, SH2D1A (Homo sapiens, UniProt O60880).
T4 construct: made in house; host or cells: HEK293 (transient transfection), unpurified extract
T4 sequence (O60880 1-128): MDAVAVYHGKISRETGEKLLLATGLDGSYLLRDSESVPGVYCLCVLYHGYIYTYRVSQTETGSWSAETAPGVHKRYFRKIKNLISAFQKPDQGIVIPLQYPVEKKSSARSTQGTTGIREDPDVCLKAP
The test can be described thus: biochemical. The settings on record: primary screen, 10 μM; read-out: percent of DMSO vehicle control. Type of test: binding.

Another test deals with T5, PTPN11(SH2dom.C-term.) (Homo sapiens, UniProt Q06124).
T5 construct: SH2dom.C-term. denotes SH2 domain closest to C-terminus of protein; made in house; host or cells: HEK293 (transient transfection, unpurified extract)
T5 sequence (Q06124 112-216 limits assumed): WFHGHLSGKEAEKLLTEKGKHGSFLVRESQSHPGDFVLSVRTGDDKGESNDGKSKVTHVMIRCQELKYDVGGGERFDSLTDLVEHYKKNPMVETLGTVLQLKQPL
The test can be described thus: biochemical. The following applies: primary screen, 10 μM. Type of test: binding.

In test [3] the target is T6, STAT3(N647I)-nonphosphorylated (Homo sapiens, UniProt P40763, N647I).
T6 construct: made in house; host or cells: HEK293 (transient transfection), unpurified extract, dephosphorylated by endogenous phosphatases
The test can be described thus: biochemical. In kind it is binding.

The target of another test is T7, ZAP70(SH2dom1.dom2.) (Homo sapiens, UniProt P43403).
T7 sequence (P43403 1-254 limits assumed): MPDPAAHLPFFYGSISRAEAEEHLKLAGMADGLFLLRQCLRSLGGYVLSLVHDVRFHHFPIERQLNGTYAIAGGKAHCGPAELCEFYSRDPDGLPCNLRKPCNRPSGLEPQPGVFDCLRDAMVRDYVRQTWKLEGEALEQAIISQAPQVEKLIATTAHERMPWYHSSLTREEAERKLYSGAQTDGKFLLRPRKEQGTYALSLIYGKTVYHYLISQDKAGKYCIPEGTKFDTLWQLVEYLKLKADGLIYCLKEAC
The test can be described thus: biochemical. The settings on record: read-out: percent of DMSO vehicle control.

The target of another test is T8, SHIP2 (Homo sapiens, UniProt O15357).
T8 construct: made in house; host or cells: HEK293 (transient transfection), unpurified extract
T8 sequence (O15357 1-1258): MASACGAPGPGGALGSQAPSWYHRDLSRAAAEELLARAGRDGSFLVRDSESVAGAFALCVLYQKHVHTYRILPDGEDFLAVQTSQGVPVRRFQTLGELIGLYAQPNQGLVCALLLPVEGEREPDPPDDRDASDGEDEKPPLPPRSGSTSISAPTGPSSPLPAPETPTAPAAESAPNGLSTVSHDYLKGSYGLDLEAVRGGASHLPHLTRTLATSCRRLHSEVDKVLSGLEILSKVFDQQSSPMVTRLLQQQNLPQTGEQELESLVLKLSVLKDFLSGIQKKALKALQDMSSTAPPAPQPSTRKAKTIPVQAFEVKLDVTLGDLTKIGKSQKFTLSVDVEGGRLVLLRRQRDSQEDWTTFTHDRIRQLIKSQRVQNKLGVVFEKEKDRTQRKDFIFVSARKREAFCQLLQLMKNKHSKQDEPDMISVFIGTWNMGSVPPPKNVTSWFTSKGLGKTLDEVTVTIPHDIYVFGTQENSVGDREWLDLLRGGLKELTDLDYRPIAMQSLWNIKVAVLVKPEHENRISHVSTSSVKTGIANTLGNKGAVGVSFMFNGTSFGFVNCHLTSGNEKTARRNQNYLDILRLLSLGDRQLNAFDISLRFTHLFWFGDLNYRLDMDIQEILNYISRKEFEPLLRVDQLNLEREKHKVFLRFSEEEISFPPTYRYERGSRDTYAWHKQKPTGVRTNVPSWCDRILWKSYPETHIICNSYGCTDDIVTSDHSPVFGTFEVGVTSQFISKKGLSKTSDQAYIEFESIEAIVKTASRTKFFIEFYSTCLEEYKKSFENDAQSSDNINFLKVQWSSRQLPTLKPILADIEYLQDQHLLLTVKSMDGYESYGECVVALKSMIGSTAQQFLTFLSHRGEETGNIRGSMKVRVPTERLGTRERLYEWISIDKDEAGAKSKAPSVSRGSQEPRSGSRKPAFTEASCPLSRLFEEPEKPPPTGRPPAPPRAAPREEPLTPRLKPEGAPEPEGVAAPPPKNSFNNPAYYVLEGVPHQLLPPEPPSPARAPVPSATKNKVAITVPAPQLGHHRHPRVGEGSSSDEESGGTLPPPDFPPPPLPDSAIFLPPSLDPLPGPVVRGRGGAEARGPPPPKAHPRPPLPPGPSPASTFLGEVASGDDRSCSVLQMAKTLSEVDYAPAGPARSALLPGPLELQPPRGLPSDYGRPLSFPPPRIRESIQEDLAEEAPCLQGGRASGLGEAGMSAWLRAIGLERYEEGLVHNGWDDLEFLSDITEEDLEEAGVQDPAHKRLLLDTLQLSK
The test can be described thus: biochemical. Type of test: binding.

For test [4], the target named is T9, STAT3(Y640F)-nonphosphorylated (Homo sapiens, UniProt P40763, Y640F).
T9 construct: made in house; host or cells: HEK293 (transient transfection), unpurified extract, dephosphorylated by endogenous phosphatases
The test can be described thus: biochemical. In kind it is binding.

[5] abbreviates: primary screen, 10 μM, read-out: percent of DMSO vehicle control.

With `CC(C)(C)[C@H](NC(=O)/C=C/c1ccc(OP(=O)(O)O)cc1)C(=O)N1CCC[C@H]1C(=O)N(c1ccccc1)c1ccc(I)cc1` [STAT6-IN-3], the Kd worked out at 140 ± 71 nM in test [1] (dose-response, read-out: KD); 280 ± 120 nM in test [2] (dose-response, read-out: KD); 1500 ± 750 nM in test [3] (dose-response, read-out: KD); 95 ± 40 nM in test [4] (dose-response, read-out: KD). In addition, the remaining activity at 10 µM in test [1] (setting [5]) was 0.1 ± 0.1%; in [2] (setting [5]) it was 0.4 ± 0.4%; on SH2D1A, 68.5 ± 43.7%; in test [3] (setting [5]), 2.1 ± 3.7%; at ZAP70(SH2dom1.dom2.) it was 60.7 ± 32.9%; at SHIP2 (setting [5]), 36.5 ± 29.6%. Further, in [4] (setting [5]), the remaining activity at 10 µM was 2.4 ± 6.1%. The entries for the “percent of DMSO vehicle control” value at SYK(SH2dom1.dom2.) and on PTPN11(SH2dom.C-term.) were 65.2±43.9% and 37.9±11.0%, respectively. For the same compound, the KD entry on SHIP2 (dose-response) is recorded as “No Hit”.
